Where a name gives a salt, the structure may show the parent alone. Read-outs that look alike come from different tables or passages of the source.
Legend:
in vitro [1] = conditions: rat
[2] = rat, 5 h
in vitro [3] = conditions: rat; for fraction unbound at 6 h: pH 7.4, Unbound fraction in plasma, fu,plasma
Procedure: Equilibrium dialysis was employed to determine the fraction of unbound drug in plasma (fu,plasma), homogenates of whole-brain (fu,brain) and the CNS regions of interest (fu,ROI) including the frontal cortex, parietal cortex, cerebellum, striatum, hippocampus, and spinal cord. […] Briefly, a Teflon 96-well plate (model HTD96b, HTDialysis LLC, Gales Ferry, CT, USA) with a cellulose membrane with a 12–14 kDa molecular weight cutoff was used. The cellulose membrane was treated according to the recommendations from the manufacturer before starting the experiment (HTDialysis LLC, Gales Ferry, CT, USA). Fresh plasma (n=3 rats per drug) was obtained on the day of the experiment and the pH of the plasma was adjusted to 7.40 using H3PO4. […] Whole brain and CNS regions of interest (n = 3–4 rats per drug) were homogenized in 1:9 (w:v) PBS pH 7.40. Diluted brain samples were individually spiked to a final concentration of 1,000 nM. Hundred μL of undiluted spiked plasma samples or homogenates were dialyzed against equal volumes of PBS, pH 7.40, for 6 h at 37°C at 200 rpm in an incubator with orbital shaking (MaxQ4450 Thermo Fisher Scientific, NinoLab, Sweden). One to three technical replicates were tested per biological replicate. Drug recovery and thermostability in plasma and brain were analyzed in each experiment by sampling spiked samples before and after the 6-h incubation. […] At the end of the 6-h incubation, 50 μL PBS sample from the receiver chambers was transferred into a Corning® 0.33 mL round-bottom polypropylene 96-well plate (VWR, Stockholm, Sweden) containing 50 μL blank plasma or 1:9 (w:v) brain homogenate using a multichannel pipette. Immediately after this step, 50 μL spiked plasma or brain homogenate was taken from the donor chambers and added to the same 96-well plate containing 50 μL of blank PBS. The 96-well plate was sealed with aluminum film, vortexed and stored at −20°C pending bioanalysis. The fraction of unbound drug in plasma was assessed as a ratio between buffer and plasma concentrations. The unbound fraction of drug in the diluted (D) CNS tissue homogenate (fu,hD) was calculated as: […]

[4] = male, Sprague-Dawley, rat, in vivo
in vitro [5] = conditions: rat; remark: listed apart in the source
[6] = rat, in vivo; for Cu,brainISF,ss (unbound steady-state concentration in brain interstitial fluid): male, Sprague-Dawley
[7] = cited from earlier work
in vivo [8] = conditions: male, Sprague-Dawley, rat, iv
in vivo [9] = conditions: male, Sprague-Dawley, rat
[10] = brain homogenate, pH 7.4, Unbound fraction fu,ROI (fu,brain)
[11] = tissue homogenate, pH 7.4, Unbound fraction fu,ROI
[12] = cerebral microdialysis, ref Kitamura et al., 2016

Compound | fraction unbound at 6 h, 1000 nM (in vitro [1]; [10]) | fraction unbound at 6 h, 1000 nM (in vitro [1]; [11]) | fraction unbound at 6 h (in vitro [3]; plasma) | Ctot,CSF,ss (total CSF concentration at steady state, assumed equal to unbound) ([4]; 4 h) | Cu,brainISF,ss (unbound steady-state concentration in brain interstitial fluid) ([6]; 4 h) [ng/g brain] | Kp,uu,ROI (unbound ROI-to-plasma concentration ratio) [6] | Kp uu at 5 h (in vitro [5]) | Reported Kp,uu [7, 12] | other results
CC(NC(C)(C)C)C(=O)c1cccc(Cl)c1 (centres unmarked) [Bupropion, bupropion hydrochloride] | 0.209 ± 0.031 | 0.142 ± 0.004 | 0.33 | 21.9±5.6 | 9.3±4.6 | exceeding unity | – | – | Kp,uu,cell,obs (observed unbound brain intracellular-to-extracellular concentration ratio) [2]: 3.1; Unbound fraction in plasma, fu,plasma (in vitro [3]; 6 h, pH 7.4): 0.327 ± 0.068; Kp uu at 5 h (in vitro [5]; Kp,uu,cell,obs (observed unbound brain intracellular-to-extracellular concentration ratio)): 3.12; Reported Kp,uu ([7]; cerebral microdialysis, ref Cremers et al., 2016): 1.9 (Cremers et al., [2016])
CC12CC3CC(C)(C1)CC(N)(C3)C2 [Memantine, memantine hydrochloride] | – | – | 0.543 ± 0.037 | – | 194.3±38.5 | exceeding unity | 2.11 | 1.80 | Kp at 4 h (in vivo [8]): 41.7; Reported Kp,uu ([7]; cerebral microdialysis, ref Kawase et al., 2021a): 2.03
COc1ccc(CN(CCN(C)C)c2ccccn2)cc1 [Pyrilamine, Pyrilamine maleate] | 0.093 ± 0.012 | 0.103 ± 0.013 | 0.386 ± 0.093 | 7.7±1.9 | 21.6±2.0 | exceeding unity | 1.88 | 2.50 (Kitamura et al., [2016]) | Difference between mean Kp,uu,ROI in the whole brain and Kp,uu,CSF ([4]; 4 h): 2.8 fold
COc1cccc(C2(O)CCCCC2CN(C)C)c1 (centres unmarked) [Tramadol, tramadol hydrochloride] | – | – | – | – | – | exceeding unity | – | – | fraction unbound (in vitro [1]; [10]): 0.496 ± 0.128; fraction unbound (in vitro [1]; [11]): 0.462 ± 0.064; Kp uu at 4 h (in vivo [9]): 1.49 ± 0.49; fraction unbound at 6 h (in vitro [3]; undiluted rat plasma pH 7.40, 500 nM (memantine 500 ng/mL), 6 h, 37°C, mean ± SD): 0.827 ± 0.027; Ctot,CSF,ss (total CSF concentration at steady state, assumed equal to unbound) [4]: 47.7±8.2; Kp uu (in vitro [5]): 2.01; Cu,brainISF,ss (unbound steady-state concentration in brain interstitial fluid) [6]: 95.0±9.4; Reported Kp,uu ([7]; in vivo): 2.90 (Kitamura et al., [2016]) 2.30 (Kitamura et al., [2014])

Reference: publication PMC11554538, “Region-independent active CNS net uptake of marketed H^+/OC antiporter system substrates” (Frontiers in Cellular Neuroscience, 2024)
